Source: US20240294522A1 (Lead Discovery Center GmbH, priority 2021, published 2024)

Tests used:
[1] = biological target: T1, GRK5 (Homo sapiens, UniProt P34947); assay: Lance Kinase Activity Assay, GRK5; conditions: biochemical Lance kinase activity assay; class symbols A-F; read-out: GRK5 LANCE Assay (IC-50)
T1 construct: purchased Thermo Scientific
Summary of the method: (§1)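 IC50s from sigmoidal dose-response over 0.0025-10 μM compound, with phosphorylated ULight substrate detected by Eu anti-phospho antibody FRET after EDTA quench.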

[2] = biological target: T2, GRK2 (Homo sapiens, UniProt P25098); assay: Lance Kinase Activity Assay, GRK2; conditions: biochemical Lance kinase activity assay; class symbols A-F; read-out: GRK2 LANCE Assay (IC-50)
T2 construct: purchased Thermo Scientific
T2 sequence (P25098 1-689): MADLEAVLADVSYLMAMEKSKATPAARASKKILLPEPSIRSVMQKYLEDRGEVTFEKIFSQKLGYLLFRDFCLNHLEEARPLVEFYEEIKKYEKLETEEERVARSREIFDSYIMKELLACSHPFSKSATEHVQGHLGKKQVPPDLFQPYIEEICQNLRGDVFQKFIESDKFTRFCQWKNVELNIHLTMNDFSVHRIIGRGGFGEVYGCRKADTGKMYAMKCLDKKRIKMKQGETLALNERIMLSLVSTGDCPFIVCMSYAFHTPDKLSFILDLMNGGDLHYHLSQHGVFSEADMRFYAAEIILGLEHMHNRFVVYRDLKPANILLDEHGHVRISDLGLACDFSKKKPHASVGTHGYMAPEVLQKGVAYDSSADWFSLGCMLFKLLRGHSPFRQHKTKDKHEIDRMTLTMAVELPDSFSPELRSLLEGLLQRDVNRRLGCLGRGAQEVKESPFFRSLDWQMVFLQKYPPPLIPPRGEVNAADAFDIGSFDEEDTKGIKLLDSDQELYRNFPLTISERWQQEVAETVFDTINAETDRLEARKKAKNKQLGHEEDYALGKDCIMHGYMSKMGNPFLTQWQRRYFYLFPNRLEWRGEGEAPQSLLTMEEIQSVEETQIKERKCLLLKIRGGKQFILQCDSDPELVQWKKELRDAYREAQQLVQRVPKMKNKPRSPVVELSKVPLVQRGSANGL
Summary of the method: as §1

T1 sequence (P34947 whole entry): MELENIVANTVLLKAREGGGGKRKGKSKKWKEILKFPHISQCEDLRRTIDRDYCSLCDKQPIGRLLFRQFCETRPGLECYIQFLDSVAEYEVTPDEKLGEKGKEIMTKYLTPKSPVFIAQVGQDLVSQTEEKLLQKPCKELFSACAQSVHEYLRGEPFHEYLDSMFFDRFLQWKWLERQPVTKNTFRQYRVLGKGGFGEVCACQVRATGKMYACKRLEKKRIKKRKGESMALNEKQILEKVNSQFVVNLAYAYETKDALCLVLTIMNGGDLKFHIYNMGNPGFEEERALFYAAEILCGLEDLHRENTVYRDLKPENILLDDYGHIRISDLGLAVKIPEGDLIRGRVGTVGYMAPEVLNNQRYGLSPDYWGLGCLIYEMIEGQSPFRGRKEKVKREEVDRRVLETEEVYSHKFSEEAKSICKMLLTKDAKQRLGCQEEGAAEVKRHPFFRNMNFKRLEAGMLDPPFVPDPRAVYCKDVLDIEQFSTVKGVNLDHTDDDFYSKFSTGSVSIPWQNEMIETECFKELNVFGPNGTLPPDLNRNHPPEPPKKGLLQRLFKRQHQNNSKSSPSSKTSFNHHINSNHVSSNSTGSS

IC50 [1] [nM]	IC50 [2] [nM]	SMILES
≤ 50	1000 to 10000	COc1ccc([C@@H](C)NC(=O)/C(C#N)=C/c2c[nH]c3ncc(-c4ccc5nc(C)cn5c4)cc23)cc1OC [Example 162]
≤ 50	1000 to 10000	COc1ccc([C@@H](C)NC(=O)C(C#N)=Cc2c[nH]c3ncc(-c4ccc(CCN(C)C)cc4)cc23)cc1OC (stereo in doubt) [Example 135]
≤ 50	> 10000	COc1ccc([C@@H](C)NC(=O)/C=C/c2c[nH]c3ncc(-c4cccc(CN5CCN(C)CC5)c4)cc23)cc1OC [Example 183]
≤ 50	1000 to 10000	COc1ccc([C@@H](C)NC(=O)/C(C#N)=C/c2c[nH]c3ncc(Nc4ccccc4)cc23)cc1OC [Example 88, (R,E)-2-cyano-N-(1-(3,4-dimethoxyphenyl)ethyl)-3-(5-(phenylamino)-1H-pyrrolo[2,3-b]pyridin-3-yl)acrylamide]
≤ 50	500 to 1000	COc1ccc([C@@H](C)NC(=O)/C=C/c2c[nH]c3ncc(-c4ccc(OCCN(C)C)cc4)cc23)cc1OC [Example 197, (R,E)-N-(1-(3,4-dimethoxyphenyl)ethyl)-3-(5-(4-(2-(dimethylamino)ethoxy)phenyl)-1H-pyrrolo[2,3-b]pyridin-3-yl)acrylamide]
≤ 50	1000 to 10000	COc1ccc([C@@H](C)NC(=O)/C(C#N)=C/c2c[nH]c3ncc(-c4cnn(C5COC5)c4)cc23)cc1OC [Example 155]
50 to 100	50 to 100	N#C/C(=C\c1c[nH]c2ncccc12)C(=O)NC(CO)c1ccccc1 (centres unmarked) [Example 32, (E)-2-cyano-N-(2-hydroxy-1-phenylethyl)-3-(1H-pyrrolo[2,3-b]pyridin-3-yl)acrylamide]
500 to 1000	1000 to 10000	N#C/C(=C\c1c[nH]c2ncccc12)C(=O)NCc1cccc(C(F)(F)F)c1 [Example 61, (E)-2-cyano-3-(1H-pyrrolo[2,3-b]pyridin-3-yl)-N-(3-(trifluoromethyl)benzyl)acrylamide]
500 to 1000	100 to 500	CS(=O)(=O)Nc1cccc(CNC(=O)/C(C#N)=C/c2c[nH]c3ncccc23)c1 [Example 29, (E)-2-cyano-N-(3-(methylsulfonamido)benzyl)-3-(1H-pyrrolo[2,3-b]pyridin-3-yl)acrylamide]
1000 to 10000	1000 to 10000	CC(NC(=O)/C=C/c1c[nH]c2ncccc12)c1ccc(F)cc1 (centres unmarked) [Example 10, (E)-N-(1-(4-fluorophenyl)ethyl)-3-(1H-pyrrolo[2,3-b]pyridin-3-yl)acrylamide]
≤ 50	1000 to 10000	COc1ccc([C@@H](C)NC(=O)/C=C/c2c[nH]c3ncc(-c4cccc(N5CCN(C)CC5)c4)cc23)cc1OC [Example 185]
1000 to 10000	1000 to 10000	N#C/C(=C\c1c[nH]c2ncccc12)C(=O)NCc1ccc(F)cc1F [Example 65, (E)-2-cyano-N-(2,4-difluorobenzyl)-3-(1H-pyrrolo[2,3-b]pyridin-3-yl)acrylamide]
≤ 50	> 10000	COc1ccc(-c2cnc3[nH]cc(/C=C(\C#N)C(=O)N[C@H](C)c4ccc(OC)c(OC)c4)c3c2)cc1OC [Example 145]
≤ 50	1000 to 10000	COc1ccc([C@@H](C)NC(=O)/C(C#N)=C/c2c[nH]c3ncc(-c4ccc(N(C)C)nc4)cc23)cc1OC [Example 147, (R,E)-2-cyano-N-(1-(3,4-dimethoxyphenyl)ethyl)-3-(5-(6-(dimethylamino)pyridin-3-yl)-1H-pyrrolo[2,3-b]pyridin-3-yl)acrylamide]
100 to 500	> 10000	COc1ccc([C@@H](C)NC(=O)/C(C#N)=C/c2c[nH]c3ncc(-c4ccccc4OC)cc23)cc1OC [Example 124]
≤ 50	1000 to 10000	COc1ccc([C@@H](C)NC(=O)/C=C/c2c[nH]c3ncc(Br)cc23)cc1OC [Example 11, (R,E)-3-(5-bromo-1H-pyrrolo[2,3-b]pyridin-3-yl)-N-(1-(3,4-dimethoxyphenyl)ethyl)acrylamide]
≤ 50	> 10000	COc1ccc([C@@H](C)NC(=O)/C=C/c2c[nH]c3ncc(-c4cc(S(C)(=O)=O)ccc4C)cc23)cc1OC [Example 248, (R,E)-N-(1-(3,4-dimethoxyphenyl)ethyl)-3-(5-(2-methyl-5-(methylsulfonyl)phenyl)-1H-pyrrolo[2,3-b]pyridin-3-yl)acrylamide]
1000 to 10000	1000 to 10000	CC(NC(=O)/C(C#N)=C/c1c[nH]c2ncccc12)c1ccccc1-n1cccn1 (centres unmarked) [Example 38, (E)-N-(1-(2-(1H-pyrazol-1-yl)phenyl)ethyl)-2-cyano-3-(1H-pyrrolo[2,3-b]pyridin-3-yl)acrylamide]
50 to 100	1000 to 10000	COc1ccc([C@@H](C)NC(=O)/C(C#N)=C/c2c[nH]c3ncc(-c4cnn(C5CCN(C(=O)OC(C)(C)C)CC5)c4)cc23)cc1OC [Example 165]
500 to 1000	500 to 1000	Cc1c(-c2cnn(C)c2)cnc2[nH]cc(/C=C(\C#N)C(=O)N[C@H](C)c3ccccc3)c12 [Example 97, (R,E)-2-cyano-3-(4-methyl-5-(1-methyl-1H-pyrazol-4-yl)-1H-pyrrolo[2,3-b]pyridin-3-yl)-N-(1-phenylethyl)acrylamide]
≤ 50	1000 to 10000	COc1ccc([C@@H](C)NC(=O)/C=C/c2c[nH]c3ncc(-c4cn(C)nc4C)cc23)cc1OC [Example 212, (R,E)-N-(1-(3,4-dimethoxyphenyl)ethyl)-3-(5-(1,3-dimethyl-1H-pyrazol-4-yl)-1H-pyrrolo[2,3-b]pyridin-3-yl)acrylamide]
≤ 50	1000 to 10000	COc1ccc([C@@H](C)NC(=O)/C(C#N)=C/c2c[nH]c3ncc(-c4cnn(C)c4)cc23)cc1OC [Example 164]
≤ 50	1000 to 10000	COc1ccc([C@@H](C)NC(=O)/C=C/c2c[nH]c3ncc(-c4cnn(C)c4C)cc23)cc1OC [Example 202, (R,E)-N-(1-(3,4-dimethoxyphenyl)ethyl)-3-(5-(1,5-dimethyl-1H-pyrazol-4-yl)-1H-pyrrolo[2,3-b]pyridin-3-yl)acrylamide]
100 to 500	100 to 500	C[C@@H](NC(=O)/C(C#N)=C/c1c[nH]c2ncccc12)c1ccc(F)cc1F [Example 17, (R,E)-2-cyano-N-(1-(2,4-difluorophenyl)ethyl)-3-(1H-pyrrolo[2,3-b]pyridin-3-yl)acrylamide]
100 to 500	> 10000	COc1ccc([C@@H](C)NC(=O)/C(C#N)=C/c2c[nH]c3ncc(-c4ccc5ccccc5c4)cc23)cc1OC [Example 144]
1000 to 10000	> 10000	N#C/C(=C\c1c[nH]c2ncccc12)C(=O)NCc1ccccc1CN1CCOCC1 [Example 37, (E)-2-cyano-N-(2-(morpholinomethyl)benzyl)-3-(1H-pyrrolo[2,3-b]pyridin-3-yl)acrylamide]
100 to 500	1000 to 10000	COc1ccc([C@@H](C)NC(=O)/C=C/c2c[nH]c3nccc(-c4cccc(S(=O)(=O)N(C)C)c4)c23)cc1OC [Example 227, (R,E)-N-(1-(3,4-dimethoxyphenyl)ethyl)-3-(4-(3-(N,N-dimethylsulfamoyl)phenyl)-1H-pyrrolo[2,3-b]pyridin-3-yl)acrylamide]
50 to 100	100 to 500	C[C@@H](NC(=O)/C(C#N)=C/c1c[nH]c2ncccc12)c1ccccc1 [Example 64, (R,E)-2-cyano-N-(1-phenylethyl)-3-(1H-pyrrolo[2,3-b]pyridin-3-yl)acrylamide]
